According to paper PMC9841533, “Microtubule-Stabilizing 1,2,4-Triazolo[1,5-a]pyrimidines as Candidate Therapeutics for Neurodegenerative Disease: Matched Molecular Pair Analyses and Computational Studies Reveal New Structure–Activity Insights” (Journal of Medicinal Chemistry, 2022):
Like-named read-outs stand apart in the source and are kept apart here.

Assays:
[1] = test system: de-tyrosinated α-tubulin (GluTub) in brain of WT mice; assay: Brain PD: Glu-tubulin in brain tissue after compound treatment; type: in vivo, mouse; conditions: WT CD-1 mice, 1 mg/kg i.p. once daily for two consecutive days
Method: Finally, to evaluate target engagement in the CNS, PD studies were conducted to determine compound-dependent elevations in the stable MT marker, de-tyrosinated α-tubulin (GluTub), in brain homogenates from compound-treated WT mice.
All animal protocols were approved by the University of Pennsylvania Institutional Animal Care and Use Committee (IACUC). […] Compounds were diluted from 20 or 40 mM DMSO stock solutions into 30% Kolliphor EL (Sigma-Aldrich) phosphate-buffered saline, pH 7.4. After 4 h following the second injection, mice were euthanized and cortices and hippocampi were isolated from each brain and placed in 0.2 mL of ice-cold radioimmunoprecipitation assay (RIPA) buffer (50 mM Tris, 150 mM NaCl, 5 mM EDTA, 0.5% sodium deoxycholate, 1% NP-40, 0.1% sodium dodecyl sulfate (SDS), pH 8.0) containing protease inhibitor (PI) cocktail (Sigma-Aldrich), 1 mM phenylmethylsulfonyl fluoride (PMSF) (Sigma-Aldrich), and 3 μM trichostatin A (TSA) (Sigma-Aldrich). The brain samples were homogenized with a handheld battery-operated mixer and subsequently sonicated. After centrifugation at 100,000g for 30 min at 4 °C, supernatant samples were transferred to a new tube and the pellets were resuspended in 0.15 mL of RIPA buffer and again homogenized, sonicated, and centrifuged. The supernatant from the second centrifugation was pooled with that from the first. The combined supernatant samples were assessed for protein concentration using a BCA assay (Thermo Fisher Scientific), and equal protein amounts from each brain sample underwent separation by 10% sodium dodecyl sulfate polyacrylamide gel electrophoresis (SDS-PAGE) followed by transfer onto nitrocellulose membranes essentially as previously described.[11] […] Incubation with infrared dye-conjugated secondary antibodies and subsequent imaging and quantification of the blots on the Odyssey imaging system were as described.[11]

[2] = Resazurin cell viability assay, HeLa; type: cell-based; conditions: human, HeLa cells, three biological replicates, read-out: HeLa CC50 ± SD
Method: (§1) Cell Culture. QBI293 and HeLa cells were cultured in DMEM supplemented with 10% heat-
(§2) inactivated FBS and 1% penicillin-streptomycin. Cells were grown in T175 cell culture flasks maintained
(§3) at 37 ℃ in 5% CO2 and sub-c ultured when at 60-8 0% cell confluence.
(§4) Resazurin Cell Viability Assay. Cytotoxicity in QBI293 and HeLa cells was measured using the
(§5) resazurin cell viability assay.1 Test compounds were serially diluted in DMSO and added to 96-well
(§6) polystyrene assay plates to give final assay concentrations ranging from 100 nM to 4000 nM (1 µL; 1%
(§7) total DMSO). Fresh medium was added to the assay plate (49 µL/well). QBI293 or HeLa cells were
(§8) cells/well. Assay plates were incubated at 37 °C and 5% CO2 for 48 h, followed by addition of 20 µL 0.5
(§9) mM resazurin (Alfa Aesar, Cat. B21187) in PBS to each well. Assay plates were incubated in the dark for
(§10) (1 picture or pasted object on this page, not shown here)
(§11) 4 h at 37 °C. Fluorescence was measured at 531 nm and 595 nm excitation and emission wavelengths,
(§12) respectively, using a 2104 EnVision® multilabel plate reader. The viability of each well was normalized to
(§13) positive and negative controls in each assay plate. Dose-response curves were generated and CC50 values
(§14) calculated with GraphPad Prism, version 9.3 (San Diego, CA) using a sigmoidal four parameter logistic
(§15) curve. The means ± standard deviations from three biological replicates are shown.
(§16) (1) O'Brien, J.; Wilson, I.; Orton, T.; Pognan, F. Investigation of the Alamar Blue (resazurin) fluorescent
(§17) dye for the assessment of mammalian cell cytotoxicity. Eur. J. Biochem. 2000, 267 (17), 5421-5426.

[3] = test system: acetylated α-tubulin (AcTub) levels in QBI293 cells; parameters: method as in PMID 26980057, PMID 33411523; conditions: activity reported in previous studies; cited from earlier work
[4] = Resazurin cell viability assay, QBI293; type: cell-based; conditions: human, QBI293 cells, three biological replicates, read-out: QBI293 CC50 ± SD
Method: as §1, §2, §3, §4, §5, §6, §7, §8, §9, §10, §11, §12, §13, §14, §15, §16, §17

[5] = test system: AcTub levels in OA-treated primary mouse cortical neurons; assay: Okadaic acid (OA) assay, AcTub ELISA in primary mouse cortical neurons; type: cell-based; conditions: OA 15 nM, 8 h, compound 1 and 10 μM
Method: To further evaluate the activity of Class I alkyne derivatives and hybrid compounds, several compounds were also assessed for their ability to compensate for MT deficits in primary neuron cultures that were treated with the phosphatase inhibitor, okadaic acid (OA). As previously described,[11] treatment of rodent neurons with OA results in tau hyperphosphorylation and MT collapse that presumably results, at least in part, from tau disengagement from MTs. Co-treatment of neurons with Class I TPDs, such as 1, along with OA prevents this MT collapse, with a resulting normalization of MT structure and neuronal processes which can be observed upon visual inspection of the neurons or through an assessment of neuronal AcTub levels, while Class II TPDs are generally unable to provide meaningful compensation of MT deficits, especially when tested at higher (i.e., 10 μM) compound concentration.[11],[12]
Figure 4 ELISA determination of AcTub levels in homogenates from primary rat cortical neurons treated with either vehicle, or OA (15 nM) in the presence of vehicle or TPD 1, 8, 9 (A); and primary mouse cortical neurons treated with vehicle, or OA (15 nM) in the presence of vehicle or TPD 1, 24, 45, 46, 53, 54 (B). Error bars represent SEM, with ***, p < 0.001 relative to vehicle treatment in the absence of OA as determined by one-way ANOVA.
Compound-induced changes in acetylated-tubulin and α-tubulin in QBI293 cells or primary mouse or rat neurons were as previously described.[11],[12] For compound testing, QBI293 cells were plated at a density of 2 × 10^5 cells/well in 12-well plates. The plated cells were incubated overnight, after which the medium was aspirated and fresh medium containing vehicle (0.25–0.3% DMSO) or test compound was added. Test compounds were prepared as 4–20 mM stock solutions in 100% DMSO, and these were diluted in culture medium prior to addition to the QBI293 cells. After 4 h incubation, whole-cell extracts were prepared from the QBI293 cells as described[11] and the supernatant fraction from each sample was assessed for protein content by bicinchoninic acid (BCA) assay. The amount of acetyl-tubulin (AcTub) and α-tubulin (αTub) within the cell extract samples was quantified using specific enzyme-linked immunosorbent assays (ELISA), as previously described.[11] Acetyl-tubulin levels were determined in a similar manner in rat or mouse cortical neuron cultures in which embryonic dissociated cortical neurons were plated at 3 × 10^5 cells/well in poly-D-lysine-coated 12-well plates, essentially as previously described.[11] The neurons were allowed to grow for 10 days before they were treated for 8 h with 15 nM okadaic acid in the presence or absence of test compound prepared as described above, or vehicle (0.25% DMSO). Culture homogenates were prepared for the determination of AcTub levels by ELISA as previously described.[11]
VehicleVehicleVehicleVehicle25 (1 µM)
Figure S2. Assessment of AcTub levels in primary mouse cortical neurons treated with vehicle,
as §10

[6] = test system: total α-tubulin (α-Tub) levels in QBI293 cells; assay: QBI293 cell assay: total α-tubulin ELISA; type: cell-based
Outline: (§18)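 AcTub and α-Tub were quantified by ELISA in whole-cell extracts normalized by BCA protein and expressed relative to vehicle. AcTub changes were also scaled to a 100 nM reference stabilizer control.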

[7] = test system: acetylated α-tubulin (AcTub) levels in QBI293 cells; assay: QBI293 cell assay of MT stabilization: acetylated α-tubulin ELISA; type: cell-based
Outline: as §18

[8] = 4 h, 1 uM compound, read-out: AlfaTub (1uM)
[9] = 4 h, 10 uM compound, read-out: AlfaTub (10 uM)
[10] = 4 h incubation, 1 μM, read-out: α-Tub 1 μM, fold-change compared to vehicle (DMSO)-treated cells
[11] = 4 h incubation, 10 μM, read-out: α-Tub 10 μM, fold-change compared to vehicle (DMSO)-treated cells
[12] = 4 h, 1 uM compound, read-out: AcTub (1uM)
[13] = 4 h, 10 uM compound, read-out: AcTub (10 uM)
[14] = 4 h incubation, 1 μM, read-out: AcTub 1 μM, fold-change compared to vehicle (DMSO)-treated cells
[15] = 4 h incubation, 10 μM, read-out: AcTub 10 μM, fold-change compared to vehicle (DMSO)-treated cells

SMILES	brain GluTub (GluTub-to-total α-Tub ratio) relative to vehicle-treated mice [1]	CC50 at 48 h [2] [nM]	Class (cellular phenotype) [3]	CC50 at 48 h [4] [nM]	prevention/correction of OA-induced MT collapse (AcTub levels) [5]	fold induction at 1 µM [6, 8]	fold induction at 10 µM [6, 9]	fold induction at 1 µM [6, 10]	fold induction at 10 µM [6, 11]	AcTub (1 uM - normalized) ([7]; 1 uM compound)	AcTub (10 uM - normalized) ([7]; 10 uM compound)	fold induction at 1 µM [7, 12]	fold induction at 10 µM [7, 13]	AcTub 1 μM, fold-change compared to positive control compound 5 (100 nM) (in parentheses) ([7]; 4 h incubation, 1 μM) [fold-change]	fold induction at 1 µM [7, 14]	AcTub 10 μM, fold-change compared to positive control compound 5 (100 nM) (in parentheses) ([7]; 4 h incubation, 10 μM) [fold-change]	fold induction at 10 µM [7, 15]
C[C@@H](Nc1c(-c2c(F)cc(C#N)cc2F)c(Cl)nc2ncnn12)C(C)(C)C [Compound 68]	significant elevations in brain GluTub	41.7 ± 3	I	30.7 ± 5.2	–	–	–	–	–	–	–	–	–	–	–	–	–
CC(C)[C@@H](C)Nc1c(-c2c(F)cc(C#CCCO)cc2F)c(Cl)nc2ncnn12 [Compound 45, (R)-4-(4-(5-Chloro-7-((3-methylbutan-2-yl)amino)-[1,2,4]triazolo[1,5-a]pyrimidin-6-yl)-3,5-difluorophenyl)but-3-yn-1-ol]	–	–	–	–	can prevent the OA-induced MT collapse	1	0.95	1 ± 0.03	0.95 ± 0.03	0.48	0.82	5.9	10.1	0.48	5.9 ± 0.32	0.82	10.1 ± 0.71
C[C@@H](Nc1c(-c2c(F)cc(C#CCCCO)cc2F)c(Cl)nc2ncnn12)C(C)(C)C [Compound 54, (R)-5-(4-(5-Chloro-7-((3,3-dimethylbutan-2-yl)amino)-[1,2,4]triazolo[1,5-a]pyrimidin-6-yl)-3,5-difluorophenyl)pent-4-yn-1-ol]	–	–	–	–	can prevent the OA-induced MT collapse	1.19	1.14	1.19 ± 0.11	1.14 ± 0.077	0.74	0.87	4.78	5.59	0.74	4.78 ± 1	0.87	5.59 ± 0.26
C[C@@H](Nc1c(-c2c(F)cc(OCCCO)cc2F)c(Cl)nc2ncnn12)C(C)(C)C [Compound 25, (R)-3-(4-(5-Chloro-7-((3,3-dimethylbutan-2-yl)amino)-[1,2,4]triazolo[1,5-a]pyrimidin-6-yl)-3,5-difluorophenoxy)propan-1-ol]	–	–	–	–	lesser recovery of OA-induced MT collapse	0.96	1.06	0.96 ± 0.03	1.06 ± 0.03	1.01	0.98	9.17	8.92	1.01	9.17 ± 0.13	0.98	8.92 ± 0.36
CC(C)[C@@H](C)Nc1c(-c2c(F)cc(C#CCCCO)cc2F)c(Cl)nc2ncnn12 [Compound 46, (R)-5-(4-(5-Chloro-7-((3-methylbutan-2-yl)amino)-[1,2,4]triazolo[1,5-a]pyrimidin-6-yl)-3,5-difluorophenyl)pent-4-yn-1-ol]	–	–	–	–	can prevent the OA-induced MT collapse	1	1.37	1 ± 0.08	1.37 ± 0.05	0.40	0.68	2.59	4.43	0.40	2.59 ± 0.16	0.68	4.43 ± 0.56
